{"source": "patent US12091411B2", "about": "“IRAK degraders and uses thereof” (Kymera Therapeutics, Inc., priority 2022, dated 2024)", "target": "T1, IRAK4 (Homo sapiens, UniProt Q9NWZ3)", "T1 construct": "Degradation of IRAK4 in OCI-LY10 was quantitatively measured using Meso Scale Discovery technology; endogenous in cells; host or cells: OCI-LY10", "T1 sequence (Q9NWZ3 1-460)": "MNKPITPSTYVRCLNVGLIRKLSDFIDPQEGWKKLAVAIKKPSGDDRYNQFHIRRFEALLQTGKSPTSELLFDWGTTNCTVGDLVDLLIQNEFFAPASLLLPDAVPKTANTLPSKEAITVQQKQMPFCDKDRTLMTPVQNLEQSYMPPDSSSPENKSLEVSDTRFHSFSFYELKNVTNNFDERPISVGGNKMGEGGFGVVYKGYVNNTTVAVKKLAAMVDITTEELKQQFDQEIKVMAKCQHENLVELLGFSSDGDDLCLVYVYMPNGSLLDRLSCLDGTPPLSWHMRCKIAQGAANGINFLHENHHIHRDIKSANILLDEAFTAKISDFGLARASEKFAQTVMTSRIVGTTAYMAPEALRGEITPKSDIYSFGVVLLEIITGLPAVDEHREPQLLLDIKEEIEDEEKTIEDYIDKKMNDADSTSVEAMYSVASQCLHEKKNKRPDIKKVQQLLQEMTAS", "assay": "IRAK4 MSD Degradation in OCI-LY10", "type": "cell-based", "details": "OCI-LY10 cells, MSD", "summary_of_the_method": "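DC50, from a three-parameter logistic fit and reported as letter bins A (<0.01 μM), B, C, D (>0.2 μM or not tested), reflects IRAK4 loss measured by MSD electrochemiluminescence in OCI-LY10 lysates. Treatment: 8 doses, 1:3 steps, top 1 to 10 μM, 4 to 24 h, 37 °C.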", "key": {"[1]": {"details": "4 hrs incubation, read-out: IRAK4 degradation in OCI-LY10 at 4 hrs: DC50"}, "[2]": {"details": "24 hrs incubation, read-out: IRAK4 degradation in OCI-LY10 at 24 hrs: DC50"}}, "note": "Read-outs that look alike come from different tables or passages of the source."}
{"molecule": "COc1cc2nn([C@H]3CC[C@H](CN4CCC5(CC4)CCN(c4cccc6c4n(C)c(=O)n6C4CCC(=O)NC4=O)CC5)CC3)cc2cc1NC(=O)c1cncc(S(C)(=O)=O)c1", "note": "(stereo partly drawn) [I-151]", "values": [{"measurement": "DC50", "setting": "[1]", "result": "> 200", "unit": "nM"}, {"measurement": "DC50", "setting": "[2]", "result": "> 200", "unit": "nM"}]}
{"molecule": "CN(C[C@H]1CC[C@H](n2cc3cc(NC(=O)c4cccc(C(F)(F)F)n4)c([S+](C)[O-])cc3n2)CC1)C1CCN(c2cccc3c2n(C)c(=O)n3C2CCC(=O)NC2=O)CC1(F)F", "note": "(stereo partly drawn) [I-478]", "values": [{"measurement": "DC50", "setting": "[1]", "result": "> 200", "unit": "nM"}, {"measurement": "DC50", "setting": "[2]", "result": "> 200", "unit": "nM"}]}
{"molecule": "Cn1c(=O)n(C2CCC(=O)NC2=O)c2cccc([C@@H]3CCN(C[C@H]4CC[C@H](n5cc6cc(NC(=O)c7cccc(C#N)n7)ncc6n5)CC4)C[C@H]3F)c21", "note": "(stereo partly drawn) [I-637]", "values": [{"measurement": "DC50", "setting": "[1]", "result": "> 200", "unit": "nM"}, {"measurement": "DC50", "setting": "[2]", "result": "< 10", "unit": "nM"}]}
{"molecule": "CN(c1cccc2c1n(C)c(=O)n2C1CCC(=O)NC1=O)C1CN(C[C@H]2CC[C@H](n3cc4cc(NC(=O)c5cccc(C(F)(F)F)n5)ccc4n3)CC2)C1", "note": "(stereo partly drawn) [I-699]", "values": [{"measurement": "DC50", "setting": "[1]", "result": "> 200", "unit": "nM"}, {"measurement": "DC50", "setting": "[2]", "result": "> 200", "unit": "nM"}]}
{"molecule": "CCn1c(=O)n(C2CCC(=O)NC2=O)c2cccc(C#CCN3CCN(C[C@H]4CC[C@H](n5cc(NC(=O)c6cnn7ccc(N8C[C@H]9C[C@@H]8CO9)nc67)c(C(F)F)n5)CC4)CC3)c21", "note": "(stereo partly drawn) [I-60]", "values": [{"measurement": "DC50", "setting": "[1]", "result": "< 10", "unit": "nM"}, {"measurement": "DC50", "setting": "[2]", "result": "> 200", "unit": "nM"}]}
{"molecule": "CN1CC2(CCN(c3ccn4ncc(C(=O)Nc5cn([C@H]6CC[C@H](CN7CCC(OCC#Cc8cccc9c8n(C)c(=O)n9C8CCC(=O)NC8=O)CC7)CC6)nc5C(F)F)c4n3)CC2)C1", "note": "(stereo partly drawn) [I-306]", "values": [{"measurement": "DC50", "setting": "[1]", "result": "> 200", "unit": "nM"}, {"measurement": "DC50", "setting": "[2]", "result": "> 200", "unit": "nM"}]}
{"molecule": "CC(C)(O)c1cc2nn(C3CCC(CNCCCCCNc4cccc5c4C(=O)N(C4CCC(=O)NC4=O)C5=O)CC3)cc2cc1NC(=O)c1cccc(C(F)(F)F)n1", "note": "(stereo not drawn) [I-142]", "values": [{"measurement": "DC50", "setting": "[1]", "result": "> 200", "unit": "nM"}, {"measurement": "DC50", "setting": "[2]", "result": "< 10", "unit": "nM"}]}
{"molecule": "Cn1c(=O)n(C2CCC(=O)NC2=O)c2cccc(N3CCN(C[C@H]4CC[C@H](n5cc(NC(=O)c6cnn7cccnc67)c(C(F)F)n5)CC4)CC3)c21", "note": "(stereo partly drawn) [I-403]", "values": [{"measurement": "DC50", "setting": "[1]", "result": "> 200", "unit": "nM"}, {"measurement": "DC50", "setting": "[2]", "result": "> 200", "unit": "nM"}]}
{"molecule": "C[C@H]1CN(C[C@H]2CC[C@H](n3cc(NC(=O)c4cnn5ccc(N6C[C@H]7C[C@@H]6CO7)nc45)c(C(F)F)n3)CC2)CCN1CC#Cc1cccc2c1n(C)c(=O)n2C1CCC(=O)NC1=O", "note": "(stereo partly drawn) [I-9]", "values": [{"measurement": "DC50", "setting": "[1]", "result": "10 to 100", "unit": "nM"}, {"measurement": "DC50", "setting": "[2]", "result": "> 200", "unit": "nM"}]}
{"molecule": "CN(C[C@H]1CC[C@H](n2cc3cc(NC(=O)c4cccc(C(F)(F)F)n4)c(S(C)(=N)=O)cc3n2)CC1)C1CCN(c2cccc3c2n(C)c(=O)n3C2CCC(=O)NC2=O)CC1(F)F", "note": "(stereo partly drawn) [I-480]", "values": [{"measurement": "DC50", "setting": "[1]", "result": "> 200", "unit": "nM"}, {"measurement": "DC50", "setting": "[2]", "result": "> 200", "unit": "nM"}]}
{"molecule": "Cn1c(=O)n(C2CCC(=O)NC2=O)c2cccc(N3CCC4(CC3)CN(Cc3ccc(-n5cc(NC(=O)c6cnn7cccnc67)c(C(F)F)n5)cc3)C4)c21", "note": "(stereo not drawn) [I-399]", "values": [{"measurement": "DC50", "setting": "[1]", "result": "< 10", "unit": "nM"}, {"measurement": "DC50", "setting": "[2]", "result": "> 200", "unit": "nM"}]}
{"molecule": "Cn1c(=O)n(C2CCC(=O)NC2=O)c2cccc([C@H]3C[C@@H](OC4CCN(C[C@H]5CC[C@H](n6cc(NC(=O)c7cnn8ccc(N9C[C@H]%10C[C@@H]9CO%10)nc78)c(C(F)F)n6)CC5)CC4)C3)c21", "note": "(stereo partly drawn) [I-81]", "values": [{"measurement": "DC50", "setting": "[1]", "result": "< 10", "unit": "nM"}, {"measurement": "DC50", "setting": "[2]", "result": "> 200", "unit": "nM"}]}
{"molecule": "Cn1c(=O)n(C2CCC(=O)NC2=O)c2cccc(C#CCOC3CC4CC3CN4C[C@H]3CC[C@H](n4cc(NC(=O)c5cnn6ccc(N7C[C@H]8C[C@@H]7CO8)nc56)c(C(F)F)n4)CC3)c21", "note": "(stereo partly drawn) [I-19]", "values": [{"measurement": "DC50", "setting": "[1]", "result": "100 to 200", "unit": "nM"}, {"measurement": "DC50", "setting": "[2]", "result": "> 200", "unit": "nM"}]}
{"molecule": "Cn1c(=O)n(C2CCC(=O)NC2=O)c2cccc(N3CC(O[C@H]4CCN(C[C@H]5CC[C@H](n6cc(NC(=O)c7cnn8ccc(N9C[C@H]%10C[C@@H]9CO%10)nc78)c(C(F)F)n6)CC5)C[C@H]4F)C3)c21", "note": "(stereo partly drawn) [I-728]", "values": [{"measurement": "DC50", "setting": "[1]", "result": "> 200", "unit": "nM"}, {"measurement": "DC50", "setting": "[2]", "result": "< 10", "unit": "nM"}]}
{"molecule": "C[C@@H]1CN(c2ccn3ncc(C(=O)Nc4cn([C@H]5CC[C@H](CN(C)C6CCN(c7cccc8c7n(C)c(=O)n8C7CCC(=O)NC7=O)CC6(F)F)CC5)nc4C(F)F)c3n2)CCO1", "note": "(stereo partly drawn) [I-529]", "values": [{"measurement": "DC50", "setting": "[1]", "result": "> 200", "unit": "nM"}, {"measurement": "DC50", "setting": "[2]", "result": "10 to 100", "unit": "nM"}]}
{"molecule": "Cn1c(=O)n(C2CCC(=O)NC2=O)c2cccc(C#CCN3CCN(C[C@H]4CC[C@H](n5cc(NC(=O)c6cccc(C(F)(F)F)n6)c(C(F)F)n5)CC4)CC3)c21", "note": "(stereo partly drawn) [I-211]", "values": [{"measurement": "DC50", "setting": "[1]", "result": "> 200", "unit": "nM"}, {"measurement": "DC50", "setting": "[2]", "result": "> 200", "unit": "nM"}]}
{"molecule": "Cn1c(=O)n(C2CCC(=O)NC2=O)c2cccc([C@H]3C[C@](O)(CN4CCN(C[C@H]5CC[C@H](n6cc(NC(=O)c7cnn8ccc(N9C[C@H]%10CC9CO%10)nc78)c(C(F)F)n6)CC5)CC4)C3)c21", "note": "(stereo partly drawn) [I-580]", "values": [{"measurement": "DC50", "setting": "[1]", "result": "> 200", "unit": "nM"}, {"measurement": "DC50", "setting": "[2]", "result": "< 10", "unit": "nM"}]}
{"molecule": "Cn1c(=O)n(C2CCC(=O)NC2=O)c2cccc(C3CN([C@H]4CCN(C[C@H]5CC[C@H](n6cc7cc(NC(=O)c8cccc(C(F)(F)F)n8)ccc7n6)CC5)C[C@@H]4F)C3)c21", "note": "(stereo partly drawn) [I-671]", "values": [{"measurement": "DC50", "setting": "[1]", "result": "> 200", "unit": "nM"}, {"measurement": "DC50", "setting": "[2]", "result": "< 10", "unit": "nM"}]}
